Assay results reported in patent publication US20180140609A1, “USE OF (4-HYDROXY-2-METHYL-1,1-DIOXIDO-2H-BENZO[E][1,2]THIAZINE-3-YL)(NAPHTHALENE-2-YL) METHANONE IN THE PREVENTION AND/OR TREATMENT OF NON-ALCOHOLIC STEATOHEPATITIS” (PIERRE FABRE MEDICAMENT, priority 2015, published 2018).
Where two headings read alike, the source gives them in different places.

Experiments:
Assay type in all cases: in vivo
[1] = Plasma level by LC/MS after single oral administration in C57BL/6N mice; settings: parent molecule by LC/MS
Method: (§1) The evaluation is made in on 4- to 6-week-old non-fasted male C57BL/6N strain mice. The compounds to be tested or the vehicle (0.5% methylcellulose in water, at 10 ml/kg) are administered orally; n=3 mice per treatment.
(§2) Blood samples are collected 1 h and 4 h after administration; the tubes are centrifuged to obtain plasma and frozen at −70° C. until bioanalysis. Plasma bioactivity (2% final volume) is analyzed by using the inhibition of human 11β-HSD type 1 as a detection system (SPA technology) for each compound at each dose tested. Percent inhibition (versus mice treated with carrier) is calculated for each dose.
Compound 1 is detected in the plasma of the treated mice and inhibits 11β-HSD type 1 as of 0.63 mg/kg. LC/MS analyses of plasma samples from the animals treated with Compound 1K show a much higher plasma level of the parent molecule than that found for Compound 1.

11β-HSD type 1 = test: Inhibition of conversion of prednisone to prednisolone after single administration to cynomolgus monkeys; settings: for inhibition of the prednisolone/prednisone ratio in animals that respond favorably: responders only; for inhibition of plasma prednisolone/prednisone ratio of AUC (30 minutes to 4 hours): prednisone 10 mg/kg 2 h later
Method: The protocol used is described by Bhat et al. (J. Pharmacol. Exp. Ther. 324, 299-305, 2008).
(§3) Briefly, the study is carried out in naive adult male cynomolgus monkeys fasted overnight. The 11β-HSD type 1 inhibitor or its vehicle (0.5% methylcellulose in water) is administered via nasogastric intubation. Two hours later, a challenge with orally administered prednisone (10 mg/kg) is performed and blood samples are taken regularly for 24 hours. These samples are centrifuged to obtain plasma and immediately frozen at −70° C. until bioanalysis. Plasma levels of prednisone, prednisolone and 11β-HSD type 1 inhibitors are measured by LC-MS/MS analytical methods.
(§4) The study is carried out over a period of 10 weeks. Profiles of plasma concentration as a function of time and areas under the curve are calculated using the trapezoidal method for all parameters.
The effect of Compound 1 is evaluated at three doses: 1.25, 5 and 20 mg/kg.
The effect of Compound 1K is evaluated at three doses: 20, 40 and 80 mg/kg. The protocol is quite similar to the preceding, except that only 5 blood samples were taken per monkey rather than 7. Compound 1K was also evaluated over a period of 10 weeks.
The 11β-HSD type 1 activity-dependent conversion of prednisone to prednisolone was evaluated. Compound 2K inhibits roughly 50% this activity at a dose of 20 mg/kg (FIG. 2A). FIG. 2 represents the effects of Compound 2K, at the three doses tested, on plasma prednisolone/prednisone ratio calculated with the area under the curve between 30 minutes and 4 hours (panel A) and on plasma exposure during the 6-hour experimental period (panel B); the results obtained with Compound 1K at a dose of 5 mg/kg are compared in the two panels.

human 11β-HSD type 1 [2] = biological target: T1, human 11β-HSD type 1 (Homo sapiens, UniProt P28845); test: Plasma bioactivity after single oral administration in C57BL/6N mice, read as inhibition of human 11β-HSD type 1 (SPA); settings: for inhibition at 2.5 mg/kg: 2.5 mg/kg oral; for inhibition at 2.5 mg/kg / inhibition at 10 mg/kg: table with plasma levels; for inhibition at 10 mg/kg: 10 mg/kg oral
Method: as §1, §2

human 11β-HSD type 1 [3] = biological target: T1, human 11β-HSD type 1; test: Bioactivity of inguinal white adipose tissue after single oral administration in C57BL/6N mice, read as inhibition of human 11β-HSD type 1 (SPA); settings: mouse inguinal white adipose tissue extract
Method: Four hours post-administration, the mice are euthanized and inguinal white adipose tissue is taken and frozen at −70° C. until the day of bioanalyses. The white adipose tissue is homogenized in liquid nitrogen and then treated with acetonitrile (1 ml of distilled water for 4 ml of acetonitrile and 200 mg of inguinal white adipose tissue) to extract soluble substances. The acetonitrile fraction is collected, then dried, and the residue is dissolved in 1 ml of DMSO for 300 mg of white adipose tissue.
Compounds tested: the same as those of Example 2.

[4] = Clinical and behavioral signs in cynomolgus monkeys during the prednisone challenge studies; settings: study no. 1, 1.25, 5 and 20 mg/kg
Method: as §3, §4

[5] = mice, 1 h, read-out: Plasma 1 h % inh.
[6] = mice, 4 h, read-out: Plasma 4 h % inh.
[7] = mouse plasma (2% final volume), 1 h after 0.63 mg/kg oral
[8] = mouse plasma, 1 h after 2.5 mg/kg oral
[9] = mouse plasma, 1 h after 10 mg/kg oral
[10] = mouse plasma, 1 h after 40 mg/kg oral
[11] = mouse plasma, 4 h after 0.63 mg/kg oral
[12] = mouse plasma, 4 h after 2.5 mg/kg oral
[13] = mouse plasma, 4 h after 10 mg/kg oral
[14] = mouse plasma, 4 h after 40 mg/kg oral

T1 sequence (P28845 whole entry): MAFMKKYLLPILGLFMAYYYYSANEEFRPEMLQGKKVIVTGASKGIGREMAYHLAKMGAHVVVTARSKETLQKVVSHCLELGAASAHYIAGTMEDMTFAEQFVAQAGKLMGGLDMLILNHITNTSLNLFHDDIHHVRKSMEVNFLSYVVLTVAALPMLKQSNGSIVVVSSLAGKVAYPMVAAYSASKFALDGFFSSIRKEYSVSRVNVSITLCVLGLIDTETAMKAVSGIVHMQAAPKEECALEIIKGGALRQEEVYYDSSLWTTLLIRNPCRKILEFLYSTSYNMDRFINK

In the case of `CN1C(C(=O)c2ccc3ccccc3c2)=C(O)c2ccccc2S1(=O)=O` [Compound 1, (4-hydroxy-2-methyl-1,1-dioxido-2H-benzo[e][1,2]thiazin-3-yl)(naphthalen-2-yl)methanone], the “Plasma 1 h” value ([1]; 2.5 mg/kg oral) is reported as 2598 ± 1478 ng/mL, the “Plasma 4 h” value ([1]; 2.5 mg/kg oral) is reported as 2205 ± 1250 ng/mL and the “Plasma 1 h” value ([1]; 10 mg/kg oral) is reported as 3675 ± 1781 ng/mL. For the same molecule, the “Plasma 4 h” value ([1]; 10 mg/kg oral) was 3823 ± 2011 ng/mL, the “animals that respond favorably to the treatment” value (11β-HSD type 1; 5 mg/kg) was 60% and the “inhibition of the prednisolone/prednisone ratio in animals that respond favorably” value (11β-HSD type 1; 5 mg/kg) was 28%. The “animals that respond favorably to the treatment” value (11β-HSD type 1; 20 mg/kg) was 80%, the “inhibition of plasma prednisolone/prednisone ratio of AUC (30 minutes to 4 hours)” value (11β-HSD type 1; 20 mg/kg) was 34% and the “inhibition of the prednisolone/prednisone ratio in animals that respond favorably” value (11β-HSD type 1; 20 mg/kg) was 46%. For the same molecule, the “dose as of which inhibition of 11β-HSD type 1 is significant and dose-dependent” value (11β-HSD type 1; doses 1.25, 5 and 20 mg/kg) was 5 mg/kg, the inhibition at 2.5 mg/kg (human 11β-HSD type 1 [2]; [5]) was 65 ± 8% and the inhibition at 2.5 mg/kg (human 11β-HSD type 1 [2]; [6]) was 58 ± 5%. The inhibition at 10 mg/kg (human 11β-HSD type 1 [2]; [5]) was 75 ± 8%, the inhibition at 10 mg/kg (human 11β-HSD type 1 [2]; [6]) was 73 ± 4% and the “dose as of which plasma of treated mice inhibits 11β-HSD type 1” value (human 11β-HSD type 1 [2]; mice, single oral administration) was 0.63 mg/kg. For the same molecule, the “% inhibition at 1 h” value (human 11β-HSD type 1 [2]; [7]) was 40%, the “% inhibition at 1 h” value (human 11β-HSD type 1 [2]; [8]) was 64% and the “% inhibition at 1 h” value (human 11β-HSD type 1 [2]; [9]) was 81%. For the same molecule, the “% inhibition at 1 h” value (human 11β-HSD type 1 [2]; [10]) was 93%, the “% inhibition at 4 h” value (human 11β-HSD type 1 [2]; [11]) was 31% and the “% inhibition at 4 h” value (human 11β-HSD type 1 [2]; [12]) was 60%. For the same molecule, the “% inhibition at 4 h” value (human 11β-HSD type 1 [2]; [13]) was 81%, the “% inhibition at 4 h” value (human 11β-HSD type 1 [2]; [14]) was 94% and the “% inhibition after 4 h” value (human 11β-HSD type 1 [3]; 4 h after 0.63 mg/kg oral) was 8%. The “% inhibition after 4 h” value (human 11β-HSD type 1 [3]; 4 h after 2.5 mg/kg oral) was 36%, the “% inhibition after 4 h” value (human 11β-HSD type 1 [3]; 4 h after 10 mg/kg oral) was 63% and the “% inhibition after 4 h” value (human 11β-HSD type 1 [3]; 4 h after 40 mg/kg oral) was 79%. For the same molecule, the “clinical or behavioral sign” value [4] was “No particular clinical or behavioral sign”.
For `CN1C(C(=O)c2ccc(-c3ccc(C#N)cc3)cc2)=C([O-])c2ccccc2S1(=O)=O.[K+]` [Compound 2K, potassium 3-(4′-cyanobiphenyl-4-carbonyl)-2-methyl-2H-benzo[e][1,2]thiazin-4-olate 1,1-dioxide, reference compound], the “inhibition of plasma prednisolone/prednisone ratio of AUC (30 minutes to 4 hours)” value (11β-HSD type 1; 20 mg/kg) was “roughly 50%”, the “activity on conversion of prednisone to prednisolone” value (11β-HSD type 1; doses below 20 mg/kg (1.25, 5 mg/kg)) was “inactive” and the “% inhibition at 1 h” value (human 11β-HSD type 1 [2]; [7]) was 26%. The “% inhibition at 1 h” value (human 11β-HSD type 1 [2]; [8]) was 63%, the “% inhibition at 1 h” value (human 11β-HSD type 1 [2]; [9]) was 84% and the “% inhibition at 4 h” value (human 11β-HSD type 1 [2]; [11]) was 29%. The “% inhibition at 4 h” value (human 11β-HSD type 1 [2]; [12]) was 65%, the “% inhibition at 4 h” value (human 11β-HSD type 1 [2]; [13]) was 86% and the “% inhibition after 4 h” value (human 11β-HSD type 1 [3]; 4 h after 0.63 mg/kg oral) was 17%. For the same molecule, the “% inhibition after 4 h” value (human 11β-HSD type 1 [3]; 4 h after 2.5 mg/kg oral) was 46% and the “% inhibition after 4 h” value (human 11β-HSD type 1 [3]; 4 h after 10 mg/kg oral) was 72%.
With `C1CCc2nnc(C34CC5CC(CC(C5)C3)C4)n2CC1` [Compound 3, 3-(1-adamantyl)-6,7,8,9-tetrahydro-5H-[1,2,4]triazolo[4,3-a]azepine, reference compound] the “% inhibition at 1 h” value (human 11β-HSD type 1 [2]; [9]) was 93%, the “% inhibition at 1 h” value (human 11β-HSD type 1 [2]; [10]) was 98% and the “% inhibition at 1 h” value (human 11β-HSD type 1 [2]; mouse plasma, 1 h after 80 mg/kg oral) was 101%. For the same molecule, the “% inhibition at 4 h” value (human 11β-HSD type 1 [2]; [13]) was 22%, the “% inhibition at 4 h” value (human 11β-HSD type 1 [2]; [14]) was 68% and the “% inhibition at 4 h” value (human 11β-HSD type 1 [2]; mouse plasma, 4 h after 80 mg/kg oral) was 94%. For the same molecule, the “% inhibition after 4 h” value (human 11β-HSD type 1 [3]; 4 h after 10 mg/kg oral) was 15%, the “% inhibition after 4 h” value (human 11β-HSD type 1 [3]; 4 h after 40 mg/kg oral) was 8% and the “% inhibition after 4 h” value (human 11β-HSD type 1 [3]; 4 h after 80 mg/kg oral) was 13%.
